Test results published in patent publication US20100144891A1, “USE OF CYCLOHEXANEHEXOL DERIVATIVES IN THE TREATMENT OF AMYOTROPHIC LATERAL SCLEROSIS” (priority 2007, published 2010).
“Also recorded” adds a separate entry of the source.

Tests used:
[1] = tested on: folate-resistant mouse neural tube defects; details: compared with myo-inositol; cited from earlier work
[2] = tested on: cytidine monophosphorylphosphatidate; details: cited from earlier work
apo-SOD1 G93S protein = apo-SOD1 G93S protein (Homo sapiens, UniProt P00441, G94S); assay: Trifluoroethanol-induced aggregation of apo-SOD1 G93S, thioflavin T signal; format: biochemical; details: SOD1:scyllo-inositol 1:20, as a function of time
From the text: FIG. 4. ApoSOD1 G93S mutant aggregation—Trifluoroethanol-induced aggregation of apo-SOD1 G93S protein in the presence and absence of scyllo-inositol as a function of time. […] Untreated (blue) and SOD1:scyllo-inositol ratio of 1:20(yellow).
(§1) Inositol related compounds were screened in aggregation assays of apo-SOD1 and the following SOD1 mutants, G93V and G93S. The G93V mutant was chosen for its fast aggregation kinetics, while the G93S is intermediary between G93V and the slow kinetics of apo-SOD1 (Stathopulos, P. B., et al. (2006) J. Biol. Chem. 281, 6184-6193). Using trifluoroethanol (TFE)-induced aggregation, all three SOD1 proteins aggregate maximally within a 2 hour window (Stathopulos P B, et al. (2003) Proc Natl Acad Soc USA. 100:7021-7026). […] The results were confirmed using a bis-ANS assay that determines the exposure of hydrophobic faces on proteins, as aggregation occurs dye binding to SOD1 should increase (Rakhit R, Cunningham P, et al (2002) J Biol. Chem. 277:47551-46556). In the presence of scyllo-inositol, the bis-ANS signal was lower than when protein was incubated alone.

SOD1G93A = assay: Negative stain electron microscopy of SOD1 aggregates/fibres; format: biochemical; details: vs control samples / SOD1 incubated alone
[3] = target: Apo-wild type SOD1 protein (Homo sapiens, UniProt P00441); assay: Trifluoroethanol-induced aggregation of Apo-wild type SOD1, thioflavin T signal; format: biochemical; details: SOD1:scyllo-inositol 1:20, 15 minute incubation
Procedure: as §1, with “FIG. 3. ApoSOD aggregation-Trifluoroethanol-induced aggregation of Apo-wild type SOD1 protein in the presence and absence of scyllo-inositol after a 15 minute incubation. The thioflavin T signal increases in the presence of scyllo-inositol. Untreated (blue) and SOD1:scyllo-inositol ratio of 1:20(yellow). Inositol” for “Inositol”, “G93V” left out, “[…].” for “G93S.”, “G93S” left out, “([…],” for “(Rakhit R,”

SOD1 G93V protein [4] = target: T1, SOD1 G93V protein (Homo sapiens, UniProt P00441, G94V); assay: bis-ANS assay (exposure of hydrophobic faces on SOD1); format: biochemical; details: in the presence of scyllo-inositol vs protein incubated alone
From the text: as §1, with “FIG. 1. Aggregation of SOD1 […] protein in the presence and absence of scyllo-inositol. […] Untreated (blue), SOD1:scyllo-inositol ratio of 1:1 (blue), 1:10 (pink) and 1:20(yellow). […] Inositol” for “Inositol”, “G93V” left out, “[…].” for “G93S.”, “G93S” left out, “([…],” for “(Rakhit R,”

Tg SOD1 G37R mice [5] = assay: Rotarod test of motor function in ALS mouse model; format: in vivo
Procedure: (§2) FIG. 2. Motor function of TgSOD1 G37R mice treated or untreated with scyllo-inositol was evaluated using the Rotarod and footprint analyses of gait. […] Stride length 37±2 mm for treated and 18±2 mm for untreated mice (p<0.001). […] Mice were untreated (n=5) or treated with scyllo-inositol (n=5) in drinking water ad libitum from 6.5 months of age and are ongoing at 12 months. Starting at 7.5 months of age, mice underwent weekly evaluation of motor function using the Rotarod test. Mice were given three consecutive trials and the mean time to fall was calculated. […] At 12 months of age, two treated mice were still remaining on the rotarod for >50 sec; untreated mice lost this ability at 11 months of age. […] Scyllo-inositol treatment maintained gait with treated 37±2 versus 18±2 mm stride length in Tg mice (p<0.001).

Tg SOD1 G37R mice [6] = assay: Foot print analyses of gait in ALS mouse model; format: in vivo
Procedure: as §2

SOD1 G93V protein [7] = target: T1, SOD1 G93V protein; assay: Trifluoroethanol (TFE)-induced SOD1 aggregation, thioflavin T (ThT) fluorescence; format: biochemical; details: SOD1:scyllo-inositol ratio 1:1, 1:10, 1:20 vs untreated
From the text: as §1, with “FIG. 1. Aggregation of SOD1 […] protein in the presence and absence of scyllo-inositol. […] Untreated (blue), SOD1:scyllo-inositol ratio of 1:1 (blue), 1:10 (pink) and 1:20(yellow). […] Inositol” for “Inositol”, “G93V” left out, “[…].” for “G93S.”, “G93S” left out, “([…],” for “(Rakhit R,”

apoSOD1 and mutant SOD1 = assay: Time course study of ThT signal (kinetics of assembly of SOD1 aggregates); format: biochemical; details: in the presence of scyllo-inositol
Procedure: as §1, with “G93V” left out, “[…].” for “G93S.”, “G93S” left out, “([…],” for “(Rakhit R,”

T1 sequence (P00441 whole entry G94V): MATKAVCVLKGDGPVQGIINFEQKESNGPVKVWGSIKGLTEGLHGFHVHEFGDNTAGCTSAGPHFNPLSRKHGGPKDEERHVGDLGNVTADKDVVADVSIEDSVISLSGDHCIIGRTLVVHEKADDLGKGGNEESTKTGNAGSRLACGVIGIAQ
apo-SOD1 G93S protein, sequence (P00441 whole entry G94S): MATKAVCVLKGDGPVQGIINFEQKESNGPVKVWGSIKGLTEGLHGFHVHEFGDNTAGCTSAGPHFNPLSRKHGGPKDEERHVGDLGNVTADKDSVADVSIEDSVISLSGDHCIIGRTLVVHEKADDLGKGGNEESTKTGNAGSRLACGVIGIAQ
Apo-wild type SOD1 protein, sequence (P00441 whole entry): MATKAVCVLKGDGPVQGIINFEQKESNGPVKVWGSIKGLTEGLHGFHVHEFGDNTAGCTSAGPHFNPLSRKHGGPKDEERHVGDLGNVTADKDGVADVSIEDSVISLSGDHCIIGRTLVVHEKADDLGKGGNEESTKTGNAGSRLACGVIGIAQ

## OC1C(O)C(O)C(O)C(O)C1O [D-chiro-inositol]
[1]
  prevention of folate-resistant neural tube defects: more effective than myo-inositol

## OC1C(O)C(O)C(O)C(O)C1O (stereo not drawn) [Epi-inositol, epi-inositol]
[2]
  reversing lithium effects on cytidine monophosphorylphosphatidate: effective

## O[C@H]1[C@H](O)[C@@H](O)[C@H](O)[C@@H](O)[C@@H]1O [scyllo-inositol]
apo-SOD1 G93S protein
  Thioflavin T signal / trifluoroethanol-induced aggregation: increased; also recorded: increases in the presence of scyllo-inositol to a greater extent than in apo-SOD1 G93S protein alone
SOD1G93A
  number of SOD1 aggregates/fibres (negative stain electron microscopy): decreased; also recorded: no fibres were detected
[3]
  Thioflavin T signal / trifluoroethanol-induced aggregation: increases
SOD1 G93V protein [4]
  bis-ANS signal: lower; also recorded: decreases
Tg SOD1 G37R mice [5]; Tg SOD1 G37R mice, scyllo-inositol in drinking water ad libitum from 6.5 months of age, untreated 10.1±0.06
  onset of disease: 10.6±0.22 months
Tg SOD1 G37R mice [5]; at 12 months of age, two treated mice, untreated mice lost this ability at 11 months
  time remaining on the rotarod: > 50 s
Tg SOD1 G37R mice [5]; treated vs untreated Tg SOD1 G37R mice, p=0.029
  motor function on the rotarod (latency to fall): improvement; also recorded: significantly better
Tg SOD1 G37R mice [6]; treated Tg SOD1 G37R mice, untreated 18±2 mm, p<0.001
  stride length: 37±2 mm
Tg SOD1 G37R mice [6]; treated versus untreated Tg mice
  gait (foot print analyses): maintained
SOD1 G93V protein [7]
  Thioflavin T (ThT) fluorescence signal: increased; also recorded: increases in a scyllo-inositol concentration dependent manner
apoSOD1 and mutant SOD1
  kinetics of assembly of SOD1 aggregates: greatly reduced; also recorded: most effective compound
